Assay results published in article PMC3401907, “Cellular Uptakes, Biostabilities and Anti-miR-210 Activities of Chiral Arginine-PNAs in Leukaemic K562 Cells” (Chembiochem, 2012).

Legend:
K562 cells [1] = experiment: Cellular uptake of fluorescein-labelled PNAs by FACS analysis; format: cell-based, human; conditions: 24 h incubation; for change of cellular uptake in the presence of serum: medium with serum vs serum-free, FACS
Description: We therefore studied the uptake of backbone-modified PNAs in the same cellular model and compared the obtained results with those observed in the study of PNA1 and PNA2. K562 cells were incubated in the presence of increasing concentrations of fluorescein-labelled PNAs (PNA1–6-Fl) for 24 and 48 h and analysed by fluorescence-activated cell sorting analysis (FACS), giving the results shown in Figure 3. Because different PNA structures could be affected by proteases present in serum, leading to different cellular uptakes, these experiments were conducted both in the presence and in the absence of serum.
Human cell lines and culture conditions: Human leukaemia K562 cells were cultured under humidified CO2 (5 %)/air in RPMI 1640 medium (Sigma) supplemented with foetal bovine serum (FBS, 10 %, Analitical de Mori, Milan, Italy), penicillin (50 units mL^−1) and streptomycin (50 μg mL^−1).[26] Mithramycin (MTH) was from Sigma. Stock solutions of MTH (100 μM) were stored at −20 °C in the dark and diluted immediately before use. Treatment of K562 cells with MTH was carried out by addition of the appropriate drug concentrations at the beginning of the cultures (cells were seeded at 30 000 mL^−1). The medium was not changed during the induction period. To determine antiproliferative activity, cell growth was studied by determining the cell number per mL with a Z1 Coulter Counter (Coulter Electronics, Hialeah, FL, USA). Erythroid differentiated K562 cells containing haemoglobin were detected by specific reaction with a benzidine/hydrogen peroxide solution as reported elsewhere.[26] The final concentration of benzidine was 0.2 % in glacial acetic acid (5 M) and H2O2 (10 %).
(§1) FACS analysis: For determination of fluorescence intensity by FACScan (Becton Dickinson, Franklin Lakes, NJ, USA), cells (either in medium supplemented with serum or under serum-free conditions) were incubated with the indicated concentrations of PNAs for different lengths of time, harvested and washed. The cells (3×10^5) were then analysed with the aid of the CellQuest version 3.3 software (Becton Dickinson), with use of the FL1 channel to detect green fluorescence. The results were expressed as median fold (i.e., the ratio between the median fluorescence intensity values obtained in the presence and in the absence of treatment, respectively). A graphic presentation of data was finally obtained through histograms, showing the number of cells versus the expressed fluorescence intensity. In some experiments we pre-incubated fluorescence-labelled PNAs (2 μM) for 10 min at room temperature in the dark with trypsin/EDTA (0.05 %, 2 and 4 μL) before addition to the cells.

K562 cells [2] = experiment: Cellular uptake (FACS) after pre-incubation with trypsin; format: cell-based, human; conditions: PNA 2 μM pre-incubated 10 min at room temperature with trypsin (0.012–0.025 %), then K562 cells in the absence of serum
Description: In order to explore the effect of protection against proteases further, pre-incubation of the PNA–peptide conjugate PNA2-Fl and the modified PNAs PNA3-Fl, PNA4-Fl, PNA5-Fl and PNA6-Fl was performed with trypsin (0.012–0.025 %) before allowing interaction with target K562 cells in the absence of serum (see Figure 4). […] The embedding of arginine residues into the PNA backbone thus allows efficient cellular uptake to be achieved without the risk of degradation even by a basic amino-acid-specific peptidase. In contrast, the carrier peptide of PNA2-Fl is to a certain degree an Achilles' heel of the molecule, leading to possible degradation by proteases, an effect worth considering in view of possible developments of PNAs as drugs based on anti-miR activity.
as §1

[3] = tested on: DNA1 (full-match antiparallel DNA); experiment: Melting temperature (Tm) of PNA:DNA duplexes, full-match DNA; format: binding; conditions: UV absorbance at 260 nm, strand concentration 5 μM; for Tm, DNA1 in urea (5 M): PBS buffer pH 7 (NaCl 100 mM, NaH2PO4 10 mM, EDTA 0.1 mM) with urea 5 M; for Tm, DNA1 in water: PBS buffer pH 7, no urea, 18 to 90 °C at 1 °C/min
Description: (§2) Measurements of Tm values: The Tm values were determined with a Lambda Bio 20 spectrophotometer and a Peltier PTP6 temperature programmer. Thermal denaturation profiles were measured by monitoring the absorbance at 260 nm from 18 to 90 °C with a heating rate of 1 °C min^−1 and recording every 0.1 °C. […]

[4] = tested on: DNA2 (mismatched DNA, G→T); experiment: Melting temperature (Tm) of PNA:DNA duplexes, single-mismatch DNA; format: binding; conditions: for Tm, DNA2 in urea (5 M): single mismatch, UV absorbance at 260 nm, PBS buffer pH 7 with urea 5 M, strand concentration 5 μM
From the text: (§3) Sequence selectivity is a very important issue in view of the use of PNAs in cellular systems, because partial hybridisation might occur with other unrelated miRNAs or, most importantly, with mRNA targets. We analysed the sequence selectivities of our PNAs with stricter models (DNA2 and RNA2) involving single base mismatches (G→T or G→U) located in the middle of the target sequences. In each case the sequence selectivity was confirmed by significant lowering of the melting temperature. The ranges of ΔTm due to the presence of these single mismatches were 8–21 °C for DNA, with the maximum drop in the case of PNA4 and the minimum observed in that of PNA6. For the latter it should be considered that the mismatch was facing the last chiral monomer, preventing the cooperative effect observed in the case of 2D-modifed highly constrained PNA.[22]
(§4) Measurements of Tm values: The Tm values were determined with a Lambda Bio 20 spectrophotometer and a Peltier PTP6 temperature programmer. Thermal denaturation profiles were measured by monitoring the absorbance at 260 nm from 18 to 90 °C with a heating rate of 1 °C min^−1 and recording every 0.1 °C. Measurement conditions: [PNA]=[DNA] or [RNA]=5 μM in PBS buffer [pH 7.0, NaCl (100 mM), NaH2PO4⋅H2O (10 mM), EDTA (0.1 mM)] with urea (5 M).

[5] = tested on: RNA1 (target region of miR-210); experiment: Melting temperature (Tm) of PNA:RNA duplexes, full-match RNA; format: binding; conditions: UV absorbance at 260 nm, strand concentration 5 μM; for Tm, RNA1 in water: PBS buffer pH 7, no urea; for Tm, RNA1 in urea (5 M): PBS buffer pH 7 with urea 5 M
Description: as §2

[6] = tested on: RNA2 (mismatched RNA, G→U); experiment: Melting temperature (Tm) of PNA:RNA duplexes, single-mismatch RNA; format: binding; conditions: UV absorbance at 260 nm, PBS buffer pH 7 with urea 5 M, strand concentration 5 μM
From the text: as §3, §4

miR-210 = miR-210 content by RT-qPCR analysis; format: cell-based, human; conditions: K562 cells, 24 h; for miR-210 inhibition upon treatment with mithramycin: PNA 2 μM with MTH 15 nM, relative to pept-1 and MTH; for inhibition of miR-210 bioavailability (miR-210 content): PNA 2 μM, Figure 5 A and B, relative to pept-1
Description: K562 cells were treated with 15 nM mithramycin in the presence of a PNA (2 μM), and after 24 h RNA was isolated and miR-210 was assayed by RT-qPCR analysis. This type of test has been used to evaluate miR content in many studies because it allows the free-miR content to be evaluated. […] Figure 5 A and B reports the obtained data, showing that inhibition of miR bioavailability was induced both with the modified PNA and with the peptide-conjugated one, whereas in the case of PNA1 it was unchanged. […] This might be related to inhibition of pre-miR maturation or to unavailability of the miR to the qRT-PCR analysis due to strong complexation with the PNA. In either case the bioavailability of the miR for targeting other genes should be reduced.
Transfection procedures: Anti-miR-210 PNAs were directly added to the cellular medium to reach the indicated final concentrations. K562 cells were cultured in 24-well plates starting from the initial density of 30 000 cells per mL. MTH was administrated together with anti-miR PNAs.
RNA extraction: Cells were isolated by centrifugation at 1500 rpm for 10 min at 4 °C, washed in PBS and lysed in Tri-reagent (Sigma–Aldrich) according to the manufacturer's instructions. The isolated RNA was washed once with cold ethanol (75 %), dried and dissolved in ultrapure nuclease-free water.
Real-time quantitative PCR: For microRNA quantification with real-time RT-PCR reagents, the primers and probes were obtained from Applied Biosystems. Reverse transcriptase (RT) reactions were performed with a TaqMan MicroRNA Reverse Transcription Kit (Applied Biosystems) for hsa-miR-210, hsa-miR-10a, hsa-miR-93, hsa-miR-99b, hsa-miR-126, hsa-miR-149, hsa-miR-424, hsa-miR-483-5p, hsa-miR-625, hsa-let-7c and the iQTM5 real-time PCR System Instrument (Bio-Rad). Relative expression was calculated by the comparative cycle threshold method and U6 microRNA was used as reference gene to normalise all RNA samples, because it is constant in the assayed samples by miR-profiling and quantitative RT-PCR analysis as previously reported.[25]

Fl-AEEA-C2DArgC2DArgG2DArgC2DArgT2DArgG2DArgT2DArgC2DArgACACGCACAG-NH2 [PNA6-Fl, fluorescein-labelled PNA6]
change of cellular uptake in the presence of serum (K562 cells [1]): no decreases in uptake
effect of trypsin pre-incubation on cellular uptake (K562 cells [2]): does not affect uptake

Fl-AEEA-C5LArgC5LArgG5LArgC5LArgT5LArgG5LArgT5LArgC5LArgACACGCACAG-NH2 [PNA4-Fl, fluorescein-labelled PNA4]
change of cellular uptake in the presence of serum (K562 cells [1]): only minor decreases in uptake
effect of trypsin pre-incubation on cellular uptake (K562 cells [2]): does not affect uptake

Fl-AEEA-CC2DArgGC2DArgTG2DArgTC2DArgAC2DArgAC2DArgGC2DArgAC2DArg AG-NH2 [PNA5-Fl, fluorescein-labelled PNA5]
change of cellular uptake in the presence of serum (K562 cells [1]): no decreases in uptake
effect of trypsin pre-incubation on cellular uptake (K562 cells [2]): does not affect uptake

Fl-AEEA-CC5LArgGC5LArgTG5LArgTC5LArgAC5LArgAC5LArgGC5LArgAC5LArgAG-NH2 [PNA3-Fl, fluorescein-labelled PNA3]
change of cellular uptake in the presence of serum (K562 cells [1]): only minor decreases in uptake
effect of trypsin pre-incubation on cellular uptake (K562 cells [2]): does not affect uptake

Flu-AEEA-R8-CCGCTGTCACACGCACAG-NH2 [PNA2-Fl, fluorescein-labelled R8-conjugated PNA2, reference compound]
change of cellular uptake in the presence of serum (K562 cells [1]): decreased uptake
cellular uptake (internalisation) in the absence of serum (K562 cells [1]; serum-free, FACS FL1 channel): efficiently internalised
effect of trypsin pre-incubation on cellular uptake (K562 cells [2]): trypsin treatment affects the cellular uptake

H-C2DArgC2DArgG2DArgC2DArgT2DArgG2DArgT2DArgC2DArgACACGCACAG-NH2 [PNA6, 2D Arg (C2) backbone-modified 18-mer PNA, model 2, stretch of consecutive modified monomers]
Tm, DNA1 in urea (5 M) [3]: 77 °C
Tm, DNA1 in water [3]: >90 °C
ΔTm due to single mismatch, DNA ([4]; DNA1 vs DNA2 (G→T in the middle of the target), urea 5 M): 8 °C
Tm, DNA2 in urea (5 M) [4]: 69 °C
Tm, RNA1 in water [5]: >90 °C
Tm, RNA1 in urea (5 M) [5]: 75 °C
Tm, RNA2 in urea (5 M) [6]: 65 °C
miR-210 inhibition upon treatment with mithramycin (miR-210): significant inhibition, but to lesser extents
inhibition of miR-210 bioavailability (miR-210 content) (miR-210): Stronger inhibition

H-CC2DARGGC2DARGTG2DARGTC2DARGAC2DARGAC2DARGGC2DARGAC2DARG AG-NH2 [PNA5, 2D Arg (C2) backbone-modified 18-mer PNA, model 1, alternating modified monomers]
Tm, DNA1 in urea (5 M) [3]: 74 °C
Tm, DNA1 in water [3]: >90 °C
Tm, DNA2 in urea (5 M) [4]: 64 °C
Tm, RNA1 in water [5]: >90 °C
Tm, RNA1 in urea (5 M) [5]: 78 °C
Tm, RNA2 in urea (5 M) [6]: 62 °C
miR-210 inhibition upon treatment with mithramycin (miR-210): significant inhibition, but to lesser extents
inhibition of miR-210 bioavailability (miR-210 content) (miR-210): less efficient inhibition
